In patent US8263598B2, “Substituted sulfonamide compounds” (Gruenenthal GmbH, priority 2008, dated 2012):

Experiments:
[1] = target: T1, human B1R receptor (hB1R) (Homo sapiens, UniProt P46663); test: FLIPR Ca2+ assay on human bradykinin 1 receptor (CHO K1 hB1R cells); type: cell-based; conditions: test substance 10 μM; CHO K1 cells with human B1R gene; agonist Lys-Des-Arg9-bradykinin 0.5 nM; compared to maximum achievable inhibition
T1 construct: host or cells: CHO K1 cells
T1 sequence (P46663 1-353): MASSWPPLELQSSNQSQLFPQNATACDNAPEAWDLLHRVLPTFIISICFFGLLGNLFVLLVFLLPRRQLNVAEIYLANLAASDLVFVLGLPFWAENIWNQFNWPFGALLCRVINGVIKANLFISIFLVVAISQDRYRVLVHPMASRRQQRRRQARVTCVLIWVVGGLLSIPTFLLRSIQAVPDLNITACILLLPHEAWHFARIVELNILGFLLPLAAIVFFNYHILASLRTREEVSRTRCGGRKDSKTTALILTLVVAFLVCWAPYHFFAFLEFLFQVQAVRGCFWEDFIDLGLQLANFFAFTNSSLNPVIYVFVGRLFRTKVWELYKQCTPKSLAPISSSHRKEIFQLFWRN
How it was run: (§1)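 Values are percent inhibition of agonist-evoked Ca²⁺ influx, measured by Fluo-4 fluorescence peak in FLIPR relative to maximum achievable inhibition. Compound at 10 μM was preincubated 10 min on B1R-transfected CHO K1 cells before challenge with 0.5 nM Lys-Des-Arg9-bradykinin (human) or 100 nM Des-Arg9-bradykinin (rat).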

[2] = target: T2, B1R receptor of rats (rB1R) (Rattus norvegicus, UniProt P97583); test: FLIPR Ca2+ assay on rat bradykinin 1 receptor (CHO K1 rB1R cells); type: cell-based; conditions: test substance 10 μM; CHO K1 cells with B1R gene of rats; agonist Des-Arg9-bradykinin 100 nM; compared to maximum achievable inhibition
T2 construct: host or cells: CHO K1 cells
T2 sequence (P97583 1-337): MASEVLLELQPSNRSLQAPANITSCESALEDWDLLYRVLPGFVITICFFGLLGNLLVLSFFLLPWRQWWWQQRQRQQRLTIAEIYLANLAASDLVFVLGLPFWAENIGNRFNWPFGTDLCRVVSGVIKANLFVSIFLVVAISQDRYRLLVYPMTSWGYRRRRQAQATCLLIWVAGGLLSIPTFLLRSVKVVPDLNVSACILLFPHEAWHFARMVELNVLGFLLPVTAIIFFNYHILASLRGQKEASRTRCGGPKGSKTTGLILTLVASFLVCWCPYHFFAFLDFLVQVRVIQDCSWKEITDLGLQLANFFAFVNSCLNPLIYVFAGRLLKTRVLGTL
How it was run: as §1

| SMILES | inhibition at 10 µM [1] [%] | inhibition at 10 µM [2] [%] |
| --- | --- | --- |
| COc1ccc(C2c3cccn3CCN2C(=O)COCCN(Cc2ccccc2)S(=O)(=O)c2c(C)cc(OC)cc2C)cc1 (centres unmarked) [Example 47, N-benzyl-4-methoxy-N-(2-(2-(1-(4-methoxyphenyl)-3,4-dihydropyrrolo[1,2-a]pyrazin-2(1H)-yl)-2-oxoethoxy)ethyl)-2,6-dimethylbenzenesulfonamide] | 42 | 100 |
| COc1cc(C)c(S(=O)(=O)N(CCOCC(=O)N2CCn3cccc3C2c2ccccc2)Cc2ccccc2)c(C)c1 (centres unmarked) [Example 48, N-benzyl-4-methoxy-2,6-dimethyl-N-(2-(2-oxo-2-(1-phenyl-3,4-dihydropyrrolo[1,2-a]pyrazin-2(1H)-yl)ethoxy)ethyl)benzenesulfonamide] | 54 | 98 |
| COc1cc(C)c(S(=O)(=O)N(CCOCC(=O)N2CCn3cccc3C2c2ccc(C)c(C)c2)Cc2ccccc2)c(C)c1 (centres unmarked) [Example 49, N-benzyl-N-(2-(2-(1-(3,4-dimethylphenyl)-3,4-dihydropyrrolo[1,2-a]pyrazin-2(1H)-yl)-2-oxoethoxy)ethyl)-4-methoxy-2,6-dimethylbenzenesulfonamide] | 39 | 69 |
| COc1cc(C)c(S(=O)(=O)N(CCOCC(=O)N2CCn3cccc3C2c2cccs2)Cc2ccccc2)c(C)c1 (centres unmarked) [Example 50, N-benzyl-4-methoxy-2,6-dimethyl-N-(2-(2-oxo-2-(1-(thiophen-2-yl)-3,4-dihydropyrrolo[1,2-a]pyrazin-2(1H)-yl)ethoxy)ethyl)benzenesulfonamide] | 48 | 100 |
| COc1cc(C)c(S(=O)(=O)N(CCOCC(=O)N2CCn3cccc3C2c2ccc(C(C)(C)C)cc2)Cc2ccccc2)c(C)c1 (centres unmarked) [Example 51, N-benzyl-N-(2-(2-(1-(4-tert-butylphenyl)-3,4-dihydropyrrolo[1,2-a]pyrazin-2(1H)-yl)-2-oxoethoxy)ethyl)-4-methoxy-2,6-dimethylbenzenesulfonamide] | 58 | 85 |
| COc1cc(C)c(S(=O)(=O)N(C)CCOCC(=O)N2CCn3cccc3C2C(C)(C)C)c(C)c1 (centres unmarked) [Example 52, N-(2-(2-(1-tert-butyl-3,4-dihydropyrrolo[1,2-a]pyrazin-2(1H)-yl)-2-oxoethoxy)ethyl)-4-methoxy-N,2,6-trimethylbenzenesulfonamide] | 100 | 98 |
| COc1cc(C)c(S(=O)(=O)N(C)CCOCC(=O)N2CCn3cccc3C2C)c(C)c1 (centres unmarked) [Example 53, 4-methoxy-N,2,6-trimethyl-N-(2-(2-(1-methyl-3,4-dihydropyrrolo[1,2-a]pyrazin-2(1H)-yl)-2-oxoethoxy)ethyl)benzenesulfonamide] | 101 | 99 |
| COc1cc(C)c(S(=O)(=O)N(C)CCOCC(=O)N2CCn3cccc3C2c2cccnc2)c(C)c1 (centres unmarked) [Example 54, 4-methoxy-N,2,6-trimethyl-N-(2-(2-oxo-2-(1-(pyridin-3-yl)-3,4-dihydropyrrolo[1,2-a]pyrazin-2(1H)-yl)ethoxy)ethyl)benzenesulfonamide] | 98 | 93 |
| COc1cc(C)c(S(=O)(=O)N(C)CCOCC(=O)N2CCn3cccc3C2c2ccc(Cl)nc2)c(C)c1 (centres unmarked) [Example 55, N-(2-(2-(1-(6-chloropyridin-3-yl)-3,4-dihydropyrrolo-[1,2-a]pyrazin-2(1H)-yl)-2-oxoethoxy)ethyl)-4-methoxy-N,2,6-trimethylbenzenesulfonamide] | 100 | 99 |
| COc1cc(C)c(S(=O)(=O)N(C)CCOCC(=O)N2CCn3ccnc3C2)c(C)c1 [Example 56, N-(2-(2-(5,6-dihydroimidazo[1,2-a]pyrazin-7(8H)-yl)-2-oxoethoxy)ethyl)-4-methoxy-N,2,6-trimethylbenzenesulfonamide] | 85 | 97 |
| COc1cc(C)c(S(=O)(=O)N(C)CCOCC(=O)N2CCn3cccc3C2c2ccc(F)c(F)c2)c(C)c1 (centres unmarked) [Example 57, N-(2-(2-(1-(3,4-difluorophenyl)-3,4-dihydropyrrolo[1,2-a]pyrazin-2(1H)-yl)-2-oxoethoxy)ethyl)-4-methoxy-N,2,6-trimethylbenzenesulfonamide] | 102 | 99 |
| COc1cc(C)c(S(=O)(=O)N(C)CCOCC(=O)N2CCn3cccc3C2c2ccc(C)c(C)c2)c(C)c1 (centres unmarked) [Example 58, N-(2-(2-(1-(3,4-dimethylphenyl)-3,4-dihydropyrrolo[1,2-a]pyrazin-2(1H)-yl)-2-oxoethoxy)ethyl)-4-methoxy-N,2,6-trimethylbenzenesulfonamide] | 102 | 97 |
| COc1cc(C)c(S(=O)(=O)N(C)CCOCC(=O)N2CCn3cccc3C2c2cccc(F)c2)c(C)c1 (centres unmarked) [Example 59, N-(2-(2-(1-(3-fluorophenyl)-3,4-dihydropyrrolo[1,2-a]pyrazin-2(1H)-yl)-2-oxoethoxy)ethyl)-4-methoxy-N,2,6-trimethylbenzenesulfonamide] | 95 | 99 |
| COc1cc(C)c(S(=O)(=O)N(C)CCOCC(=O)N2CCn3cccc3C2c2cccs2)c(C)c1 (centres unmarked) [Example 60, 4-Methoxy-N,2,6-trimethyl-N-(2-(2-oxo-2-(1-(thiophen-2-yl)-3,4-dihydropyrrolo[1,2-a]pyrazin-2(1H)-yl)ethoxy)ethyl)benzenesulfonamide] | 100 | 98 |
| COc1cc(C)c(S(=O)(=O)N(C)CCOCC(=O)N2CCn3cccc3C2c2cccc(C(F)(F)F)c2)c(C)c1 (centres unmarked) [Example 61, 4-methoxy-N,2,6-trimethyl-N-(2-(2-oxo-2-(1-(3-(trifluoromethyl)phenyl)-3,4-dihydropyrrolo[1,2-a]pyrazin-2(1H)-yl)ethoxy)ethyl)benzenesulfonamide] | 100 | 99 |

The next lines start with the values.

| inhibition at 10 µM [1] [%] | inhibition at 10 µM [2] [%] | SMILES |
| --- | --- | --- |
| 101 | 98 | COc1cccc(C2c3cccn3CCN2C(=O)COCCN(C)S(=O)(=O)c2c(C)cc(OC)cc2C)c1 (centres unmarked) [Example 62, 4-methoxy-N-(2-(2-(1-(3-methoxyphenyl)-3,4-dihydropyrrolo[1,2-a]pyrazin-2(1H)-yl)-2-oxoethoxy)ethyl)-N,2,6-trimethylbenzenesulfonamide] |
| 102 | 100 | COc1cc(C)c(S(=O)(=O)N(C)CCOCC(=O)N2CCn3cccc3C2c2ccc(C(F)(F)F)cc2F)c(C)c1 (centres unmarked) [Example 63, N-(2-(2-(1-(2-fluoro-4-(trifluoromethyl)phenyl)-3,4-dihydropyrrolo[1,2-a]pyrazin-2(1H)-yl)-2-oxoethoxy)ethyl)-4-methoxy-N,2,6-trimethylbenzene-sulfonamide] |
| 100 | 99 | COc1cc(C)c(S(=O)(=O)N(C)CCOCC(=O)N2CCn3cccc3C2c2ccc(C(C)(C)C)cc2)c(C)c1 (centres unmarked) [Example 64, N-(2-(2-(1-(4-tert-butylphenyl)-3,4-dihydropyrrolo[1,2-a]pyrazin-2(1H)-yl)-2-oxoethoxy)ethyl)-4-methoxy-N,2,6-trimethylbenzenesulfonamide] |
| 101 | 99 | Cc1cc(C)c(S(=O)(=O)N(C)CCOCC(=O)N2CCn3cccc3C2C(C)(C)C)c(C)c1 (centres unmarked) [Example 65, N-(2-(2-(1-tert-butyl-3,4-dihydropyrrolo[1,2-a]pyrazin-2(1H)-yl)-2-oxoethoxy)ethyl)-N,2,4,6-tetramethylbenzenesulfonamide] |
| 87 | 92 | Cc1cc(C)c(S(=O)(=O)N(C)CCOCC(=O)N2CCn3cccc3C2C)c(C)c1 (centres unmarked) [Example 66, N,2,4,6-tetramethyl-N-(2-(2-(1-methyl-3,4-dihydropyrrolo[1,2-a]pyrazin-2(1H)-yl)-2-oxoethoxy)ethyl)benzenesulfonamide] |
| 99 | 100 | Cc1cc(C)c(S(=O)(=O)N(C)CCOCC(=O)N2CCn3cccc3C2c2cccnc2)c(C)c1 (centres unmarked) [Example 67, N,2,4,6-tetramethyl-N-(2-(2-oxo-2-(1-(pyridin-3-yl)-3,4-dihydropyrrolo[1,2-a]pyrazin-2(1H)-yl)ethoxy)ethyl)benzenesulfonamide] |
| 101 | 100 | Cc1cc(C)c(S(=O)(=O)N(C)CCOCC(=O)N2CCn3cccc3C2c2ccc(Cl)nc2)c(C)c1 (centres unmarked) [Example 68, N-(2-(2-(1-(6-chloropyridin-3-yl)-3,4-dihydropyrrolo[1,2-a]pyrazin-2(1H)-yl)-2-oxoethoxy)ethyl)-N,2,4,6-tetramethylbenzenesulfonamide] |
